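These data come from cells grown in 96-well plates and exposed to compound for 48 hours at five concentrations. At the GI50, growth is halved. At the TGI there is no net growth.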
What was measured:
Test in all cases: inhibition of tumour cell growth, NCI panel, 48 h
OVCAR-3 ovarian = test system: OVCAR-3 ovarian
SNB-19 CNS = test system: SNB-19 CNS
SNB-75 CNS = test system: SNB-75 CNS
MOLT-4 leukemia = test system: MOLT-4 leukemia
NCI-H226 lung = test system: NCI-H226 lung
UACC-62 melanoma = test system: UACC-62 melanoma
EKVX NSCLC = test system: EKVX NSCLC
HCT-116 colon = test system: HCT-116 colon
A498 renal = test system: A498 renal
BT-549 breast = test system: BT-549 breast

SMILES | GI50 (OVCAR-3 ovarian) [µM] | TGI (OVCAR-3 ovarian) [µM] | GI50 (SNB-19 CNS) [µM] | TGI (SNB-19 CNS) [µM] | GI50 (SNB-75 CNS) [µM] | TGI (SNB-75 CNS) [µM] | GI50 (MOLT-4 leukemia) [µM] | TGI (MOLT-4 leukemia) [µM] | GI50 (NCI-H226 lung) [µM] | TGI (NCI-H226 lung) [µM] | GI50 (UACC-62 melanoma) [µM] | TGI (UACC-62 melanoma) [µM] | GI50 (EKVX NSCLC) [µM] | TGI (EKVX NSCLC) [µM] | GI50 (HCT-116 colon) [µM] | TGI (HCT-116 colon) [µM] | TGI (A498 renal) [µM] | GI50 (A498 renal) [µM] | GI50 (BT-549 breast) [µM] | TGI (BT-549 breast) [µM]
C/C(=N\n1c(N)c(C#N)c(-c2ccc(Cl)cc2)c(C#N)c1=O)c1ccncc1 | 3.7 | 21.5 | 10.6 | > 100 | 6.11 | 26.6 | > 100 | > 100 | 18.5 | 54.5 | 36.4 | > 100 | 6.13 | > 100 | 11.9 | 31.7 |  |  |  | 
c1ccc(NC[Si]23OCCN(CCO2)CCO3)cc1 |  | > 100 |  | > 100 |  | > 100 |  | > 100 |  | > 100 |  | > 100 |  | > 100 |  | > 100 | > 100 |  |  | 
C/C(=N/O)c1ccc2c(c1)C(=NO)c1cc(/C(C)=N/O)ccc1-2 |  | 39.3 |  | 26.8 |  | 36.3 |  | 13.2 |  | 26.8 |  | 38.4 |  | 41.7 |  | 64.6 |  |  |  | 
C=CC1=CC(C)C[C@]1(O)C(=O)OC (some centres undefined) | > 100 |  | > 100 |  | > 100 |  | > 100 |  | > 100 |  | > 100 |  | > 100 |  | > 100 |  |  | > 100 |  | 
COc1ccc(-c2nc3c(c(=O)n2C(C)=O)C(c2ccc(Cl)cc2)c2sc4c(Cl)cccc4c2O3)cc1 (centres undefined) | 0.383 | 1.85 | 0.413 | 2.01 | 0.738 | 9.98 | 0.386 | 2.64 | 0.329 | 2.24 | 0.298 | 1.7 | 0.71 | 4.74 | 0.341 | 1.38 |  |  | 0.355 | 2.07
CC(=O)OCCC(O[Si](c1ccccc1)(c1ccccc1)C(C)(C)C)C(C)(C)O (centres undefined) |  | 62.2 |  | > 100 |  | > 100 |  | 63 |  | 36 |  | > 100 |  | > 100 |  | 31.2 | > 100 |  |  | 
CC(=O)[CH-]C(=O)c1ccccc1.CC(=O)[CH-]C(=O)c1ccccc1.[CH2-]CCC.[CH2-]CCC.[Sn+4] | 1.3 | 2.62 | 1.3 | 2.73 | 0.352 | 1.18 | 0.421 | 1.86 | 0.526 | 2.28 | 0.754 | 2.17 | 1.41 | 3.25 | 1.38 | 2.78 | 3.74 | 1.66 |  | 
C[C@@]12CCCC(=O)N1[C@@H](CO)C(c1ccccc1)O2 (some centres undefined) |  | > 100 |  | > 100 |  | > 100 |  |  |  |  |  | > 100 |  | > 100 |  | > 100 | > 100 |  |  | 
CCC(=O)c1cc([N+](=O)[O-])c(Br)s1 | 1.91 | 3.32 | 17.4 | 35.3 | 10.4 | 22.2 | 2.7 | 13.2 | 18.7 | 35.6 | 14.4 | 28.8 | 16.4 | 34.8 | 1.68 | 3.14 | 31.3 | 17.3 |  | 
Cc1cc([N+](=O)[O-])c(S(=O)(=O)c2ccccc2)c([N+](=O)[O-])c1 |  | 11.4 |  | 32.9 |  | 47.3 |  | > 28.9 |  | 41.9 |  | > 44.3 |  | > 72.5 |  | 22.5 | 35.6 |  |  | 
CC1(C)OC(COCCOCCCCCO)C(COCCOCCCCCO)O1 (centres undefined) |  | > 100 |  | > 100 |  | > 100 |  | > 100 |  | > 100 |  | > 100 |  | > 100 |  | > 100 | > 100 |  |  | 
Cc1ccccc1NC(=O)C(=O)CC(=O)c1ccc([N+](=O)[O-])cc1 |  | > 100 |  | > 100 |  | > 100 |  |  |  | > 100 |  | > 100 |  | > 100 |  | > 100 |  |  |  | 
CN(C)CCCC1(c2ccc(F)cc2)OCc2cc(-c3cncc4ccccc34)ccc21 (centres undefined) | 2.94 | 9.88 | 2.35 | 7.4 | 1.66 | 6.86 | 2.39 | 6.7 | 8.65 | 27 | 2.24 | 5.17 | 8.48 | 21.2 | 2.94 | 11 |  |  | 7.45 | 20.5
COc1ccc(-c2cc(/C=C/C(=O)c3cc(OC)c(OC)c(OC)c3)[nH]n2)cc1OC | 1.59 | 3.15 | 1.8 | 5.32 | 1.31 | 3.77 | 1.81 | 8.86 | 1.93 | 7.91 | 1.79 | 3.88 |  |  | 0.425 | 1.79 | 4.99 | 1.46 | 1.36 | 2.93
COC(=O)c1cc2c3c(ccc2[nH]1)N(C(=O)c1cc2c4c(ccc2[nH]1)N(C(=O)c1cc2c5c(ccc2[nH]1)N(C(N)=O)CC5)CC4)CC3 |  | > 28.9 |  | 12.6 |  |  |  | > 100 |  | 5.76 |  | > 19.8 |  | > 100 |  | > 100 | 4.4 |  |  | 
NC(=O)c1c[se]c(C2OC(COP(=O)(O)CP(=O)(O)OCC3OC(n4cnc5c(N)ncnc54)C(O)C3O)C(O)C2O)n1 (centres undefined) |  | > 100 |  | > 100 |  | > 100 |  | > 100 |  | > 100 |  |  |  | > 100 |  | > 100 | > 100 |  |  | 
CC(C)(C)c1cc(CCC(=O)Nc2ccc(Cl)cc2Cl)nc(N)n1 |  | > 100 |  | > 100 |  |  |  | > 100 |  | > 100 |  | > 100 |  | > 100 |  | > 100 |  |  |  | 
CCOC(=O)C[C@@]12CCCNC1(C)CCc1ccccc12 (some centres undefined) |  | > 100 |  | > 100 |  |  |  | > 100 |  | > 100 |  | > 100 |  | > 100 |  | > 100 |  |  |  | 
COc1ccc(CC2=NCCc3cc(OC)c(OC)cc32)cc1Br |  |  |  | > 100 |  |  |  | 58.6 |  | 50.9 |  | 36.6 |  | > 100 |  |  | 95.1 |  |  | 

From PubChem BioAssay (NCI)
